Assay results taken from US20070179295A1, “Triazolopyrimidines” (priority 2003, published 2007).

Test: logP determination through HPLC (EEC directive 79/831 Annex V. A8, gradient method, acetonitrile/0.1% aqueous phosphoric acid)
Type: physicochemical
Conditions: for chromatographic logP: HPLC
[1] = Table 1, compounds of formula (I), HPLC gradient method, acetonitrile/0.1% aqueous phosphoric acid
[2] = Table 2, precursors of formula (II)

Row | Compound | logP [1] | other results
1 | Clc1nc2nc(C3CC3)nn2c(N2CCOCC2)c1-c1ccsc1 [Example 73] | 2.51 | –
2 | FC(F)(F)CNc1c(-c2cc(Cl)sc2Cl)c(Cl)nc2nc(C3CC3)nn12 [Example 47] | 3.85 | –
3 | C=C(C)CN(C)c1c(-c2ccsc2)c(Cl)nc2nc(C3CC3)nn12 [Example 75] | 3.81 | –
4 | CC(C)(C)CNc1c(-c2ccsc2)c(Cl)nc2nc(C3CC3)nn12 [Example 77] | 3.85 | –
5 | Cc1nc2nc(Cl)c(-c3ncncc3Cl)c(NC(C)C(F)(F)F)n2n1 [Example 2, N-[5-chloro-6-(5-chloro-4-pyrimidinyl)-2-methyl[1,2,4]triazolo[1,5-a]pyrimidin-7-yl]-N-[(1S)-2,2,2-trifluor-1-methylethyl]amine] | – | chromatographic logP (HPLC (gradient method)): 2.13
6 | CC(C)CN(C)c1c(-c2ccsc2)c(Cl)nc2nc(C3CC3)nn12 [Example 63] | 3.90 | –
7 | CC(C)(C)CNc1c(-c2cc(Cl)sc2Cl)c(Cl)nc2nc(C3CC3)nn12 [Example 50] | 5.08 | –
8 | CC1CCCCN1c1c(-c2ccsc2)c(Cl)nc2nc(C3CC3)nn12 (stereo not shown) [Example 95] | 4.07 | –
9 | C=C(C)CN(CC)c1c(-c2ccsc2)c(Cl)nc2nc(C3CC3)nn12 [Example 57] | 4.13 | –
10 | FC1(F)CCN(c2c(-c3ncccc3C(F)(F)F)c(Cl)nc3nc(C4CC4)nn23)CC1 [Example 4] | 3.20 | –
11 | CCCN(CC1CC1)c1c(-c2cc(Cl)sc2Cl)c(Cl)nc2nc(C3CC3)nn12 [Example 79] | 5.71 | –
12 | Clc1nc2nc(C3CC3)nn2c(N2CCCC2)c1-c1ccsc1 [Example 65] | 3.18 | –
13 | Cc1nc2nc(Cl)c(-c3ncccc3[N+](=O)[O-])c(Cl)n2n1 [Example 120] | – | logP [2]: 1.68
14 | Cc1nc2nc(Cl)c(-c3ncccc3C)c(N3CCC(C)CC3)n2n1 [Example 10] | 3.09 | –
15 | CC1CCN(c2c(-c3ncccc3C(F)(F)F)c(Cl)nc3nc(C4CC4)nn23)CC1 [Example 3] | 3.77 | –
16 | Clc1cc(-c2c(Cl)nc3nc(C4CC4)nn3c2NC2CCCC2)c(Cl)s1 [Example 70] | 4.82 | –
17 | CC(C)CN(C)c1c(-c2cc(Cl)sc2Cl)c(Cl)nc2nc(C3CC3)nn12 [Example 81] | 5.25 | –
18 | FC(F)(F)CNc1c(-c2ccsc2)c(Cl)nc2nc(C3CC3)nn12 [Example 60] | 2.87 | –
19 | Clc1nc2nc(C3CC3)nn2c(Cl)c1-c1ccccn1 [Example 118] | – | logP [2]: 1.88
20 | COCCN(C)c1c(-c2cc(Cl)sc2Cl)c(Cl)nc2nc(C3CC3)nn12 [Example 58] | 4.08 | –
21 | Cc1nc2nc(Cl)c(-c3ncccc3C(F)(F)F)c(NC(C)C(C)(C)C)n2n1 (stereo not shown) [Example 11] | 2.99 | –
22 | CC1CCN(c2c(-c3ccsc3)c(Cl)nc3nc(C4CC4)nn23)CC1 [Example 55] | 4.23 | –
23 | CCCN(CC1CC1)c1c(-c2ccsc2)c(Cl)nc2nc(C3CC3)nn12 [Example 66] | 4.32 | –
24 | FC(F)(F)c1cccnc1-c1c(Cl)nc2nc(C3CC3)nn2c1Cl [Example 114] | – | chromatographic logP: 2.73
25 | Oc1nc2nc(C3CC3)nn2c(O)c1-c1ncccc1C(F)(F)F [Example 124, 6-(3-trifluoromethyl-pyridin-2-yl)-2-cyclopropyl[1,2,4]triazolo[1,5-a]-pyrimidin-5,7-diol] | – | chromatographic logP: 0.47

Continued, in another order:

Row | logP [1] | Compound | other results
26 | 4.32 | CC(C)c1nc2nc(Cl)c(-c3ncc(C(F)(F)F)cc3Cl)c(NC(C)C(C)C)n2n1 (stereo not shown) [Example 112] | –
27 | 2.94 | CC(C)C(C)Nc1c(-c2ncncc2Cl)c(Cl)nc2nc(C3CC3)nn12 (stereo not shown) [Example 15] | –
28 | 2.95 | CC(C)C(C)Nc1c(-c2ncncc2Cl)c(Cl)nc2nc(C3CC3)nn12 (stereo not shown) [Example 37] | –
29 | 2.60 | CC(Nc1c(-c2ccccn2)c(Cl)nc2nc(C3CC3)nn12)C(F)(F)F (stereo not shown) [Example 22] | –
30 | 2.78 | CC(C)c1nc2nc(Cl)c(-c3ncncc3F)c(NC(C)C(F)(F)F)n2n1 (stereo not shown) [Example 102] | –
31 | 3.81 | CC(C)C(C)Nc1c(-c2ccsc2)c(Cl)nc2nc(C3CC3)nn12 (stereo not shown) [Example 52] | –
32 | 3.29 | CC(C)C(C)Nc1c(-c2ncccc2C(F)(F)F)c(Cl)nc2nc(C3CC3)nn12 (stereo not shown) [Example 6] | –
33 | 2.37 | FC(F)(F)CNc1c(-c2ncncc2Cl)c(Cl)nc2nc(C3CC3)nn12 [Example 30] | –
34 | 2.57 | CC(Nc1c(-c2ncncc2F)c(Cl)nc2nc(C3CC3)nn12)C(F)(F)F (stereo not shown) [Example 105] | –
35 | 3.12 | CC(C)C(C)Nc1c(-c2ncncc2Cl)c(Cl)nc2nc(C3CC3)nn12 (stereo not shown) [Example 32] | –
36 | 2.31 | Cc1nc2nc(Cl)c(-c3ncncc3Cl)c(NC(C)C(C)C)n2n1 (stereo not shown) [Example 9] | –
37 | 2.03 | Cc1nc2nc(Cl)c(-c3ncncc3F)c(NC(C)C(F)(F)F)n2n1 (stereo not shown) [Example 109] | –
38 | 3.01 | CC(Nc1c(-c2ncccc2C(F)(F)F)c(Cl)nc2nc(C3CC3)nn12)C(F)(F)F (stereo not shown) [Example 7] | –
39 | 4.18 | CC(C)Nc1c(-c2cc(Cl)sc2Cl)c(Cl)nc2nc(C3CC3)nn12 [Example 48] | –
40 | 5.42 | CC(C)CC(C)Nc1c(-c2cc(Cl)sc2Cl)c(Cl)nc2nc(C3CC3)nn12 (stereo not shown) [Example 68] | –
41 | 2.79 | CC(C)C(C)Nc1c(-c2ncncc2F)c(Cl)nc2nc(C3CC3)nn12 (stereo not shown) [Example 104] | –
42 | 3.29 | CC(Nc1c(-c2ccsc2)c(Cl)nc2nc(C3CC3)nn12)C(F)(F)F (stereo not shown) [Example 59] | –

Row | logP [1] | Compound | other results
43 | 2.64 | C[C@H](Nc1c(-c2ncccc2[N+](=O)[O-])c(Cl)nc2nc(C3CC3)nn12)C(F)(F)F (single isomer, unassigned) [Example 16] | –
44 | 3.30 | CC1CCN(c2c(-c3ncncc3Cl)c(Cl)nc3nc(C4CC4)nn23)CC1 [Example 94] | –
45 | 3.02 | CC(C)c1nc2nc(Cl)c(-c3ncncc3F)c(NC(C)C(C)C)n2n1 (stereo not shown) [Example 101] | –
46 | 2.63 | CC(C)C(C)Nc1c(-c2ccccn2)c(Cl)nc2nc(C3CC3)nn12 (stereo not shown) [Example 27] | –
47 | 3.41 | CCC(C)Nc1c(-c2ccsc2)c(Cl)nc2nc(C3CC3)nn12 (stereo not shown) [Example 78] | –
48 | 3.26 | C[C@H](Nc1c(-c2ncc([N+](=O)[O-])cc2Cl)c(Cl)nc2nc(C3CC3)nn12)C(F)(F)F [Example 19] | –
49 | 2.56 | CC(C)c1nc2nc(Cl)c(-c3ncncc3Cl)c(NCC(F)(F)F)n2n1 [Example 31] | –
50 | 3.39 | CC(Nc1c(-c2ncncc2Cl)c(Cl)nc2nc(C3CC3)nn12)C(C)(C)C (stereo not shown) [Example 35] | –
51 | 3.47 | CC(C)c1nc2nc(Cl)c(-c3ncncc3F)c(NC(C)C(C)(C)C)n2n1 (stereo not shown) [Example 100] | –
52 | 2.82 | CC(C)C(C)Nc1c(-c2ncccc2[N+](=O)[O-])c(Cl)nc2nc(C3CC3)nn12 (stereo not shown) [Example 25] | –
53 | 2.78 | CC(Nc1c(-c2ccncc2Cl)c(Cl)nc2nc(C3CC3)nn12)C(F)(F)F (stereo not shown) [Example 44] | –
54 | 2.60 | CC(Nc1c(-c2ccccn2)c(Cl)nc2nc(C3CC3)nn12)C(F)(F)F (stereo not shown) [Example 24] | –
55 | 3.17 | CC(C)c1nc2nc(Cl)c(-c3ncncc3Cl)c(NC(C)C(C)C)n2n1 (stereo not shown) [Example 36] | –
56 | 2.48 | FC(F)(F)CNc1c(-c2ccncc2Cl)c(Cl)nc2nc(C3CC3)nn12 [Example 40] | –
57 | 3.86 | CC(Nc1c(-c2nc([N+](=O)[O-])ccc2Cl)c(Cl)nc2nc(C3CC3)nn12)C(C)(C)C (stereo not shown) [Example 28] | –
58 | 2.69 | CC(Nc1c(-c2ncncc2Cl)c(Cl)nc2nc(C3CC3)nn12)C(F)(F)F (stereo not shown) [Example 8] | –
